In patent publication US8097620B2, “Diazaquinolones that inhibit prolyl hydroxylase activity” (Amgen Inc., priority 2007, dated 2012) one finds IC50 data, which are given here for three molecules.

Chain of HIF PHD2 (Q9GZT9 whole entry): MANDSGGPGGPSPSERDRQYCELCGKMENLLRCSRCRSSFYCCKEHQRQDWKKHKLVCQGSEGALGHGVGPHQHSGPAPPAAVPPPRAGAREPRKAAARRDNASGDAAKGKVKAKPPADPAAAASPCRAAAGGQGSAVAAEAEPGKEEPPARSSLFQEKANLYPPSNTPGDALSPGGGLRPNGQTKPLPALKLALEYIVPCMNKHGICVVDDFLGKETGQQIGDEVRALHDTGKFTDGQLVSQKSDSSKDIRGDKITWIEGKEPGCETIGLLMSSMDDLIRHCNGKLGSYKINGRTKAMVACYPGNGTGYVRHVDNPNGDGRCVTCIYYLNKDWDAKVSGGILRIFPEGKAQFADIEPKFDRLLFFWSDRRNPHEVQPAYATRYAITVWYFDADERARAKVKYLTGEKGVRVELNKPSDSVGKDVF

The assay concerns the target HIF PHD2 (Homo sapiens, UniProt Q9GZT9). The experiment in a line: PHD2 inhibition assay (TR-FRET, VCB-Eu detection of hydroxylated P564-HIF1α peptide). Type of assay: biochemical. As to conditions: 2 nM PHD2, 100 nM P564-HIF1α peptide, 0.25 μM 2-oxoglutarate, 100 μM FeCl2, 2 mM ascorbic acid, pH 6. The protocol: Inhibition of HIF PHD2 activity was quantified utilizing the TR-FRET technology. HIF PHD2 catalyzes a hydroxyl modification on the proline residue of the P564-HIF1α peptide substrate (Biotin-[…] (SEQ ID NO: 7)) resulting in recognition and binding of the europylated Von Hippel-Lindau protein (pVHL), elongin B and elongin C heterotrimeric (VCB-Eu) complex.
The PHD2 inhibition assay was executed by addition of freshly dissolved FeCl2 to 178.57 μM (100 μM final concentration) in PHD2 Reaction Buffer containing 30 mM MES, pH 6, 10 mM NaCl, 0.25% Brij-35, 0.01% BSA, and 1% DMSO. 28 μL of the iron solution and 2 μL of inhibitor compounds serially diluted in 100% DMSO (5% DMSO final) were added to black polypropylene 96-well microtiter plates. To that, 10 μL of 10 nM PHD2 (2 nM final) was added to all wells of the plate except for the 8 wells of column 12 (LO control), and allowed to incubate at room temperature on the shaker for one hour. Column 6 was the HI control containing PHD2 enzyme and 5% DMSO vehicle, but no inhibitor compound. To initiate the PHD2 enzymatic reaction, 10 μL of a solution containing 500 nM P564-HIF1α peptide (100 nM final), 10 mM ascorbic acid (2 mM final), and 1.25 μM 2-oxoglutarate (α-ketoglutarate; 0.25 μM final) in PHD2 Reaction Buffer was added to all wells of the plate and allowed to incubate on the shaker at room temperature for one hour.
The reaction was terminated by addition of 25 μL TR-FRET Buffer (50 mM TRIS-HCl, pH 9, 100 mM NaCl, 0.05% BSA, and 0.5% Tween-20) containing 150 mM succinate (product inhibitor; 50 mM final), 75 nM streptavidin-APC (25 nM final), and 7.5 nM VCB-Eu (2.5 nM final). The TR-FRET detection reagents were placed on a shaker for 1 hour to reach binding equilibrium before reading on the Discovery platform (PerkinElmer). Europium is excited at 315 nm and phosphoresces at 615 nm with a large Stoke's shift. APC, in turn, emits at 655 nm upon excitation at 615 nm. The TR-FRET signal is measured as the ratio of the APC 655 nm signal divided by the internal europium reference 615 nm emission signal.
The POC (percentage of control) was determined by comparing the signal from hydroxylated peptide substrate in the enzyme reaction containing inhibitor compound with that from PHD2 enzyme with DMSO vehicle alone (HI control), and no enzyme (LO control). POC was calculated using the formula: % control (POC)=(cpd−average LO)/(average HI−average LO)*100. Data (consisting of POC and inhibitor concentration in μM) was fitted to a 4-parameter equation (y=A+((B−A)/(1+((x/C)^D))), where A is the minimum y (POC) value, B is the maximum y (POC), C is the x (cpd concentration) at the point of inflection and D is the slope factor) using a Levenburg-Marquardt non-linear regression algorithm.
(Time-resolved FRET reads energy transfer from a long-lived donor to a nearby acceptor.)
The term IC50 denotes the midpoint of a concentration-inhibition curve. Read a low IC50 as higher potency. In turn, `Cn1c(=O)c(C(=O)NCC(=O)O)c(O)c2cnc(-c3csc4ccccc34)nc21` [Example 40, 2-(2-(benzo[b]thiophen-3-yl)-5-hydroxy-8-methyl-7-oxo-7,8-dihydropyrido[2,3-d]pyrimidine-6-carboxamido)acetic acid] returned an IC50 of 13 nM.
In turn, `Cn1c(=O)c(C(=O)NCC(=O)O)c(O)c2cnc(-c3ccc4sccc4c3)nc21` [Example 51, 2-(2-(benzo[b]thiophen-5-yl)-5-hydroxy-8-methyl-7-oxo-7,8-dihydropyrido[2,3-d]pyrimidine-6-carboxamido)acetic acid] showed an IC50 of 9.4 nM.
As for `Cn1c(=O)c(C(=O)NCC(=O)O)c(O)c2cnc(-c3cccc4ccccc34)nc21` [Example 46, 2-(5-hydroxy-8-methyl-2-(naphthalen-1-yl)-7-oxo-7,8-dihydropyrido[2,3-d]pyrimidine-6-carboxamido)acetic acid], the figure is 2.3 nM.
